One experiment concerns iPSC-derived astrocytes. In words: Calcium transients in iPSC-derived astrocytes in response to stimuli. It is filed as cell-based, human. To be noted: DMSO as control treatment, FIG. 15.
For experiment [1] the following is noted: as described in Sidrauski et al.; cited from earlier work.

With `Nc1ncnc2c1ncn2[C@@H]1O[C@H](COP(=O)(O)OP(=O)(O)OP(=O)(O)O)[C@@H](O)[C@H]1O` [ATP], the intracellular calcium levels entry in the experiment on iPSC-derived astrocytes is recorded as “increase of intracellular calcium levels”.
Same read-out and setting: under `[Cl-].[K+]` [KCL] stands “increase of intracellular calcium levels”; under `N[C@@H](CCC(=O)O)C(=O)O` [glutamate], “increase of intracellular calcium levels”.
A word on the IC50: it is the concentration needed to halve the response being measured. On to `O=C(COc1ccc(Cl)cc1)N[C@H]1CC[C@H](NC(=O)COc2ccc(Cl)cc2)CC1` [trans-ISRIB, N,N′-((1r,4r)-cyclohexane-1,4-diyl)bis(2-(4-chlorophenoxy)acetamide)], for which, in experiment [1], the IC50 was 5 nM and the “potency of trans-ISRIB relative to cis-ISRIB” value is recorded as 100 fold.

Source of the values: patent US12729367B2, “Radial glia and astrocyte differentiation from human pluripotent stem cells” (The United States of America, as represented by the …, priority 2020, dated 2026).
